# Assays:
# [1] = target: human SOS1 (nucleotide exchange of K-Ras^G12C) (Homo sapiens, UniProt Q07889); assay: Biochemical assay 2: K-Ras^G12C activation assay by hSOS1 at high GTP concentration (HTRF); conditions: high GTP; for IC50: read-out: Assay 2 (KRAS-Activation by SOS high GTP) activity expressed as IC50
# [2] = target: K-Ras^G12C : hSOS1 interaction (Homo sapiens, UniProt Q07889); assay: Biochemical assay 1: K-Ras^G12C interaction assay with hSOS1 (HTRF); type: binding; conditions: read-out: Assay 1 (KRAS-SOS Interaction) activity expressed as IC50
Structure (SMILES),IC50 [1],IC50 [2],"inhibition at 20 µM ([1]; read-out: Assay 2 (KRAS-Activation by SOS high GTP) activity expressed as % inhibition at 20 μM, at 20 μM)"
"COc1cc2nc(C)nc(N[C@H](C)c3ccc(-c4ccccc4CCN)s3)c2cc1OC (stereo in doubt) [Example 357, N-[1-{5-[2-(2-aminoethyl)phenyl]thiophen-2-yl}ethyl]-6,7-dimethoxy-2-methylquinazolin-4-amine]",48.8 nM,51.2 nM,
"COc1cc2nc(C)nc(NC(C)c3ccc(-c4ccccc4[C@@H](C)NC(=O)OC(C)(C)C)s3)c2cc1OC (stereo in doubt) [Example 358, tert-butyl {1-[2-(5-{1-[(6,7-dimethoxy-2-methylquinazolin-4-yl)amino]ethyl}thiophen-2-yl)phenyl]ethyl}carbamate]",1530 nM,1440 nM,
"COc1cc2nc(C)nc(NC(C)c3ccc(-c4ccccc4[C@@H](C)N)s3)c2cc1OC (stereo in doubt) [Example 359, N-[1-(5-{2-[1-aminoethyl]phenyl}thiophen-2-yl)ethyl]-6,7-dimethoxy-2-methylquinazolin-4-amine]",200 nM,234 nM,
"COc1cc2nc(C)nc(NC(C)c3ccc(-c4ccccc4[C@H](C)N)s3)c2cc1OC (stereo in doubt) [Example 360, N-[1-(5-{2-[1-aminoethyl]phenyl}thiophen-2-yl)ethyl]-6,7-dimethoxy-2-methylquinazolin-4-amine]",141 nM,195 nM,
"COc1cc2nc(C)nc(NC(C)c3cccc4c3CCO4)c2cc1OC (stereo not drawn) [Example 22, N-[1-(2,3-dihydro-1-benzofuran-4-yl)ethyl]-6,7-dimethoxy-2-methylquinazolin-4-amine]",219 nM,177 nM,
"COc1cc2nc(C)nc(NC(C)c3ccc4c(c3)OCO4)c2cc1OC (stereo not drawn) [Example 23, N-[1-(1,3-benzodioxol-5-yl)ethyl]-6,7-dimethoxy-2-methylquinazolin-4-amine]",1850 nM,2720 nM,
"COc1cc2nc(C)nc(NC(C)c3ccc4c(c3)CCO4)c2cc1OC (stereo not drawn) [Example 24, N-[1-(2,3-dihydro-1-benzofuran-5-yl)ethyl]-6,7-dimethoxy-2-methylquinazolin-4-amine]",1220 nM,701 nM,
"COc1cc2nc(C)nc(NC(C)c3ccc4c(c3)CCCC4)c2cc1OC (stereo not drawn) [Example 25, 6,7-dimethoxy-2-methyl-N-[1-(5,6,7,8-tetrahydronaphthalen-2-yl)ethyl]quinazolin-4-amine]",850 nM,541 nM,
"COc1cc2nc(C)nc(NC(C)c3c(C)nc4ccccn34)c2cc1OC (stereo not drawn) [Example 26, 6,7-dimethoxy-2-methyl-N-[1-(2-methylimidazo[1,2-a]pyridin-3-yl)ethyl]quinazolin-4-amine]",,9550 nM,52%
"COc1cc2nc(C)nc(NC(C)c3csc4ccccc34)c2cc1OC (stereo not drawn) [Example 27, N-[1-(1-benzothiophen-3-yl)ethyl]-6,7-dimethoxy-2-methylquinazolin-4-amine]",402 nM,368 nM,
"Cc1nc(N[C@H](C)c2ccccc2)c2cc(N=S(C)(C)=O)ccc2n1 [Example 30, 6-{[dimethyl(oxido)-lambda6-sulfanylidene]amino}-2-methyl-N-[(1R)-1-phenylethyl]quinazolin-4-amine]",1100 nM,1340 nM,
"Cc1nc(N[C@H](C)c2ccc(F)cc2)c2cc(N=S(C)(C)=O)ccc2n1 [Example 32, 6-{[dimethyl(oxido)-lambda6-sulfanylidene]amino}-N-[(1R)-1-(4-fluorophenyl)ethyl]-2-methylquinazolin-4-amine]",1400 nM,1070 nM,
"COc1cc2nc(C)nc(NC(C)c3ccc4c(c3)NC(=O)CO4)c2cc1OC (stereo not drawn) [Example 34, 6-{1-[(6,7-dimethoxy-2-methylquinazolin-4-yl)amino]ethyl}-2H-1,4-benzoxazin-3(4H)-one]",3710 nM,4230 nM,
"COc1ccc2cc(C(C)Nc3nc(C)nc4cc(OC)c(OC)cc34)ccc2c1 (stereo not drawn) [Example 35, 6,7-dimethoxy-N-[1-(6-methoxy-2-naphthyl)ethyl]-2-methylquinazolin-4-amine]",4780 nM,4720 nM,
"COc1cc2nc(C)nc(N[C@H](C)c3cccc(-c4ccc(O)nc4)c3)c2cc1OC [Example 68, 5-(3-{(1R)-1-[(6,7-dimethoxy-2-methylquinazolin-4-yl)amino]ethyl}phenyl)pyridin-2-ol]",486 nM,137 nM,
"COc1cc2nc(C)nc(N[C@H](C)c3cccc(-n4cccn4)c3)c2cc1OC [Example 341, 6,7-dimethoxy-2-methyl-N-{(1R)-1-[3-(1H-pyrazol-1-yl)phenyl]ethyl}quinazolin-4-amine]",3730 nM,2830 nM,
"COc1cc2nc(C)nc(N[C@H](C)c3cccc(Br)c3)c2cc1OCc1ccccc1 [Example 343, 6-(benzyloxy)-N-[(1R)-1-(3-bromophenyl)ethyl]-7-methoxy-2-methylquinazolin-4-amine]",1610 nM,1680 nM,

Structure (SMILES),IC50 [1],IC50 [2],"inhibition at 20 µM ([1]; read-out: Assay 2 (KRAS-Activation by SOS high GTP) activity expressed as % inhibition at 20 μM, at 20 μM)"
"COc1cc2nc(C)nc(N[C@H](C)c3cccc(-c4cn[nH]c4)c3)c2cc1OCc1ccccc1 [Example 344, 6-(benzyloxy)-7-methoxy-2-methyl-N-{(1R)-1-[3-(1H-pyrazol-4-yl)phenyl]ethyl}-quinazolin-4-amine]",1190 nM,931 nM,
"COc1cc2nc(C)nc(N[C@H](C)c3cccc(-c4cn[nH]c4)c3)c2cc1O [Example 345, 7-methoxy-2-methyl-4-({(1R)-1-[3-(1H-pyrazol-4-yl)phenyl]ethyl}amino)quinazolin-6-ol]",7840 nM,14600 nM,
"COc1cc2nc(C)nc(N[C@H](C)c3cccc(-c4cn[nH]c4)c3)c2cc1OCC1CC1 [Example 346, 6-(cyclopropylmethoxy)-7-methoxy-2-methyl-N-{(1R)-1-[3-(1H-pyrazol-4-yl)phenyl]ethyl}quinazolin-4-amine]",395 nM,342 nM,
"COCCOc1cc2c(N[C@H](C)c3cccc(-c4cn[nH]c4)c3)nc(C)nc2cc1OC [Example 348, 7-methoxy-6-(2-methoxyethoxy)-2-methyl-N-{(1R)-1-[3-(1H-pyrazol-4-yl)phenyl]-ethyl}quinazolin-4-amine]",816 nM,693 nM,
"CC[C@@H](O)c1ccccc1-c1ccc(C(C)Nc2nc(C)nc3cc(OC)c(OC)cc23)s1 (stereo partly drawn) [Example 349, (1R)-1-[2-(5-{1-[(6,7-dimethoxy-2-methylquinazolin-4-yl)amino]ethyl}thiophen-2-yl)phenyl]propan-1-ol]",649 nM,231 nM,
"CCCCOc1cc2c(N[C@H](C)c3cccc(-c4cn[nH]c4)c3)nc(C)nc2cc1OC [Example 350, 6-butoxy-7-methoxy-2-methyl-N-{(1R)-1-[3-(1H-pyrazol-4-yl)phenyl]ethyl}quinazolin-4-amine]",736 nM,688 nM,
"COc1cc2nc(C)nc(N[C@H](C)c3cccc(-c4cn[nH]c4)c3)c2cc1OCCC(C)C [Example 351, 7-methoxy-2-methyl-6-(3-methylbutoxy)-N-{(1R)-1-[3-(1H-pyrazol-4-yl)phenyl]ethyl}quinazolin-4-amine]",1200 nM,1710 nM,
"COc1cc2nc(C)nc(NC(C)c3ccc(-c4ccccc4CCNC(=O)OC(C)(C)C)s3)c2cc1OC (stereo not drawn) [Example 352, tert-butyl {2-[2-(5-{1-[(6,7-dimethoxy-2-methylquinazolin-4-yl)amino]ethyl}thiophen-2-yl)phenyl]ethyl}carbamate]",12200 nM,16000 nM,
"COc1cc2nc(C)nc(N[C@H](C)c3cccc(-c4cn[nH]c4)c3)c2cc1OC(C)C [Example 353, 7-methoxy-2-methyl-6-(propan-2-yloxy)-N-{(1R)-1-[3-(1H-pyrazol-4-yl)phenyl]ethyl}quinazolin-4-amine]",420 nM,360 nM,
"COc1cc2nc(C)nc(N[C@H](C)c3cccc(-c4cn[nH]c4)c3)c2cc1OCC1COC1 [Example 354, 7-methoxy-2-methyl-6-(oxetan-3-ylmethoxy)-N-{(1R)-1-[3-(1H-pyrazol-4-yl)phenyl]ethyl}quinazolin-4-amine]",516 nM,313 nM,
"CCOc1cc2c(N[C@H](C)c3cccc(-c4cn[nH]c4)c3)nc(C)nc2cc1OC [Example 355, 6-Ethoxy-7-methoxy-2-methyl-N-{(1R)-1-[3-(1H-pyrazol-4-yl)phenyl]ethyl}-quinazolin-4-amine]",571 nM,485 nM,
"CCOc1cc2c(N[C@H](C)c3cccc(-c4cnn(CC)c4)c3)nc(C)nc2cc1OC [Example 356, 6-ethoxy-N-{(1R)-1-[3-(1-ethyl-1H-pyrazol-4-yl)phenyl]ethyl}-7-methoxy-2-methylquinazolin-4-amine]",777 nM,655 nM,
"COc1cc2nc(C)nc(NC(C)c3ccc(-c4ccccc4-c4cn[nH]c4)s3)c2cc1OC (stereo not drawn) [Example 361, 6,7-dimethoxy-2-methyl-N-[1-{5-[2-(1H-pyrazol-4-yl)phenyl]thiophen-2-yl}ethyl]-quinazolin-4-amine]",4050 nM,2460 nM,
"Cc1nc(N[C@H](C)c2cccc(Cl)c2)c2cc(Br)ccc2n1 [Example 363, 6-bromo-N-[(1R)-1-(3-chlorophenyl)ethyl]-2-methylquinazolin-4-amine]",11300 nM,12400 nM,
"COc1cc2nc(C)nc(NC(C)c3ccc(-c4ccccc4CNC4CCCC4)s3)c2cc1OC (stereo not drawn) [Example 364, N-[1-(5-{2-[(cyclopentylamino)methyl]phenyl}thiophen-2-yl)ethyl]-6,7-dimethoxy-2-methylquinazolin-4-amine]",158 nM,129 nM,
"COc1cc2nc(C)nc(NC(C)c3ccc(-c4ccccc4CNCc4ccccc4)s3)c2cc1OC (stereo not drawn) [Example 365, N-[1-(5-{2-[(benzylamino)methyl]phenyl}thiophen-2-yl)ethyl]-6,7-dimethoxy-2-methylquinazolin-4-amine]",299 nM,469 nM,

# Reference: patent US20240083857A1, “2-Methyl-Quinazolines” (Bayer Pharma Aktiengesellschaft, priority 2017, published 2024)
